Source: publication PMC10510381, “Alkyne as a Latent Warhead to Covalently Target SARS-CoV-2 Main Protease” (Journal of Medicinal Chemistry, 2023)
“And” between values parts separate entries of the source, which are not always exact repeats. Identical values can stand only once. “Also recorded” adds a separate entry of the source. Like-named read-outs stand apart in the source and are kept apart here. Residues, ends and D or L forms follow the SMILES beside them. *: point of attachment. Cbz = O=C(OCc1ccccc1)*

Columns and labels:
SARS-CoV-2 M^pro = SARS-CoV-2 M^pro (Severe acute respiratory syndrome coronavirus 2, UniProt P0DTD1); experiment: biochemical; settings: for inhibition against M^pro: up to 80 μM
HeLa proteome = format: cell-based, human
HEK293T proteome = experiment: Proteomic labeling of parental HEK293T cells (in-gel fluorescence); format: cell-based, human
[1] = target: M^pro expressed in HEK293T cells (Severe acute respiratory syndrome coronavirus 2, UniProt P0DTD1); format: cell-based; settings: HEK293T transiently transfected with M^pro
recombinant M^pro = recombinant M^pro (Severe acute respiratory syndrome coronavirus 2, UniProt P0DTD1); format: binding
SARS-CoV-2 = format: cell-based
[2] = 15-min treatment of M^pro (0.5 μM), FRET substrate 20 μM, both duplicate values given, read-out: IC50
[3] = 15-min pre-incubation, read-out: IC50 (average of duplicate)

SMILES: C#C[C@H](CCC(N)=O)NC(=O)[C@H](CC(C)C)NC(=O)c1cc2c(OC)cccc2[nH]1 [Compound 2d, O=C(N[C@@H](CCC(N)=O)C#C)[C@H](CC(C)C)NC(C1=CC2=C(C=CC=C2OC)N1)=O]
- IC50 (SARS-CoV-2 M^pro; 15-min pre-incubation, both duplicate values given, read-out: IC50 uM (15-min pre-incubation)): 22 µM
- IC50 (SARS-CoV-2 M^pro; [2]): 22 µM

SMILES: CC(C)(C)[C@H](NC(=O)C(F)(F)F)C(=O)N1C[C@H]2[C@@H]([C@H]1C(=O)N[C@H](C#N)C[C@@H]1CCNC1=O)C2(C)C [Compound 4g, nirmatrelvir, reference compound]
- cytotoxicity (Hela-ACE2 cells; up to the highest concentration tested, 10 μM, 20 h): no notable cytotoxicity

SMILES: CC(C)(C)[C@H](NC(=O)C(F)(F)F)C(=O)N1C[C@H]2[C@@H]([C@H]1C(=O)N[C@@H](C[C@@H]1CCNC1=O)C(N)=O)C2(C)C [Compound 4h, O=C1NCC[C@H]1C[C@@H](C(N)=O)NC([C@H]2N(C([C@@H](NC(C(F)(F)F)=O)C(C)(C)C)=O)C[C@H]3[C@@H]2C3(C)C)=O]
- IC50 (SARS-CoV-2 M^pro; [2]): > 80 µM

SMILES: C#C[C@H](CCC(N)=O)NC(=O)[C@H](CC(C)C)NC(=O)OCc1ccccc1 [Compound 1d, O=C(N[C@@H](CCC(N)=O)C#C)[C@H](CC(C)C)NC(OCC1=CC=CC=C1)=O]
- IC50 (SARS-CoV-2 M^pro; [2]): 35 µM and 60 µM

SMILES: CC(C)C[C@H](NC(=O)OCc1ccccc1)C(=O)N[C@H](/C=C/C(=O)OCc1ccccc1)CCC(N)=O [Compound 1a, O=C(N[C@@H](CCC(N)=O)/C=C/C(OCC1=CC=CC=C1)=O)[C@H](CC(C)C)NC(OCC2=CC=CC=C2)=O]
- IC50 (SARS-CoV-2 M^pro; [2]): 2.5 µM and 3.9 µM

SMILES: CC(C)(C)[C@H](NC(=O)C(F)(F)F)C(=O)N1C[C@H]2[C@@H]([C@H]1C(=O)N[C@H](C=O)C[C@@H]1CCNC1=O)C2(C)C [Compound 4e, O=C1NCC[C@H]1C[C@@H](C([H])=O)NC([C@H]2N(C([C@@H](NC(C(F)(F)F)=O)C(C)(C)C)=O)C[C@H]3[C@@H]2C3(C)C)=O]
- IC50 (SARS-CoV-2 M^pro; [2]): 0.29 µM and 0.3 µM

SMILES: CC(C)C[C@H](NC(=O)OCc1ccccc1)C(=O)N[C@H](/C=C/S(C)(=O)=O)CCC(N)=O [Compound 1b, O=C(N[C@@H](CCC(N)=O)/C=C/S(C)(=O)=O)[C@H](CC(C)C)NC(OCC1=CC=CC=C1)=O]
- IC50 (SARS-CoV-2 M^pro; [2]): 12 µM and 18 µM

SMILES: C#C[C@H](C[C@@H]1CCNC1=O)NC(=O)[C@H](CC(C)C)NC(=O)c1cc2c(OC)cccc2[nH]1 [Compound 3d, O=C(N[C@@H](C[C@H]1C(NCC1)=O)C#C)[C@H](CC(C)C)NC(C2=CC3=C(C=CC=C3OC)N2)=O]
- IC50 (SARS-CoV-2 M^pro; [3]): ~7 µM
- IC50 (SARS-CoV-2 M^pro; [2]): 10 µM and 4.4 µM

SMILES: CC(C)C[C@H](NC(=O)OCc1ccccc1)C(=O)N[C@H](C=O)CCC(N)=O [Compound 1e, O=C(N[C@@H](CCC(N)=O)C([H])=O)[C@H](CC(C)C)NC(OCC1=CC=CC=C1)=O] (Cbz-Leu-Gln-aldehyde)
- IC50 (SARS-CoV-2 M^pro; [2]): > 80 µM
- inhibition against M^pro (SARS-CoV-2 M^pro): failed to cause significant inhibition

SMILES: COc1cccc2[nH]c(C(=O)N[C@@H](CC(C)C)C(=O)N[C@H](C#N)CCC(N)=O)cc12 [Compound 2g, O=C(N[C@@H](CCC(N)=O)C#N)[C@H](CC(C)C)NC(C1=CC2=C(C=CC=C2OC)N1)=O]
- IC50 (SARS-CoV-2 M^pro; [2]): 29 µM and 30 µM

SMILES: CC(C)C[C@H](NC(=O)OCc1ccccc1)C(=O)N[C@@H](CCC(N)=O)C(=O)C(=O)NCc1ccccc1 [Compound 1f, O=C(N[C@@H](CCC(N)=O)C(C(NCC1=CC=CC=C1)=O)=O)[C@H](CC(C)C)NC(OCC2=CC=CC=C2)=O]
- IC50 (SARS-CoV-2 M^pro; [2]): > 80 µM
- inhibition against M^pro (SARS-CoV-2 M^pro): failed to cause significant inhibition

SMILES: C#CC[C@H](NC(=O)C(F)(F)F)C(=O)N1C[C@H]2[C@@H]([C@H]1C(=O)N[C@H](C#C)C[C@@H]1CCNC1=O)C2(C)C [Alk-4d, O=C1NCC[C@H]1C[C@@H](C#C)NC([C@H]2N(C([C@@H](NC(C(F)(F)F)=O)CC#C)=O)C[C@H]3[C@@H]2C3(C)C)=O]
- proteome labeling, HeLa cells (HeLa proteome): little labeling
- proteome labeling, HEK293T cells (HEK293T proteome; 1 hour, up to 30 μM): little labeling; also recorded: did not label any proteins
- proteome labeling, HEK293T cells (HEK293T proteome; 5 h, all tested concentrations): little proteome labeling
- labeling of M^pro in live cells [1]: dose-dependent labeling
- probe concentration for efficient labeling of M^pro (recombinant M^pro; 1 h treatment): above 1 μM
- probe concentration reaching saturation of M^pro labeling (recombinant M^pro; 1 h treatment): 3 µM

SMILES: CNS(=O)(=O)/C=C/[C@H](CCC(N)=O)NC(=O)[C@H](CC(C)C)NC(=O)OCc1ccccc1 [Compound 1c, O=C(N[C@@H](CCC(N)=O)/C=C/S(=O)(NC)=O)[C@H](CC(C)C)NC(OCC1=CC=CC=C1)=O]
- IC50 (SARS-CoV-2 M^pro; [3]): 47 µM
- IC50 (SARS-CoV-2 M^pro; [2]): 39 µM and 55 µM

SMILES: CC(C)C[C@H](NC(=O)OCc1ccccc1)C(=O)N[C@H](C#N)CCC(N)=O [Compound 1g, O=C(N[C@@H](CCC(N)=O)C#N)[C@H](CC(C)C)NC(OCC1=CC=CC=C1)=O]
- IC50 (SARS-CoV-2 M^pro; [2]): > 80 µM
- inhibition against M^pro (SARS-CoV-2 M^pro): failed to cause significant inhibition

SMILES: CC(C)(C)[C@H](NC(=O)C(F)(F)F)C(=O)N1C[C@H]2[C@@H]([C@H]1C(=O)N[C@H](C#CC(F)(F)F)C[C@@H]1CCNC1=O)C2(C)C [Compound 4i, O=C1NCC[C@H]1C[C@@H](C#CC(F)(F)F)NC([C@H]2N(C([C@@H](NC(C(F)(F)F)=O)C(C)(C)C)=O)C[C@H]3[C@@H]2C3(C)C)=O]
- cytotoxicity (Hela-ACE2 cells): no notable cytotoxicity
- antiviral activity (SARS-CoV-2): strong, dose-dependent antiviral activity
- anti-COVID activity (SARS-CoV-2; sub-micromolar concentrations, HeLa-ACE2, 24 h): significant anti-COVID activity
- concentration sufficient to abolish labeling of M^pro (recombinant M^pro; competition with 10 μM Alk-4d): 1 µM

SMILES: C#CC[C@H](NC(=O)C(F)(F)F)C(=O)N1C[C@H]2[C@@H]([C@H]1C(=O)N[C@H](C#CC(F)(F)F)C[C@@H]1CCNC1=O)C2(C)C [Alk-4i, O=C1NCC[C@H]1C[C@@H](C#CC(F)(F)F)NC([C@H]2N(C([C@@H](NC(C(F)(F)F)=O)CC#C)=O)C[C@H]3[C@@H]2C3(C)C)=O]
- proteome labeling, HEK293T cells (HEK293T proteome; 5 h, 10 μM): significant labeling
- lowest concentration tested, giving intense labeling of M^pro (recombinant M^pro): 300 nM
- incubation time to label M^pro near saturation (recombinant M^pro; time-course): 5 min
